Tested on: Plasmodium falciparum
Assay: GSK_TCMDC: Inhibition of Plasmodium falciparum 3D7 in whole erythrocytes, using parasite LDH activity as an index of growth.
Assay type: functional, organism-based
Details: Plasmodium falciparum, 3D7

SMILES	XC50 [µM]
CCCCOc1cc(OC)c2ccccc2c1CCNCCCCNCCc1c(OCCCC)cc(OC)c2ccccc12	1.05
O=C(Nc1ccccc1)c1cccc(Nc2nccc(Nc3ccc(Oc4ccccc4)cc3)n2)c1	1.55
Cc1cccc2nc(-c3cccc(-c4ccc(CNCCc5ccncc5)cc4)c3)[nH]c12	0.119
FC(F)(F)c1ccc2[nH]ccc(=NN=Cc3ccccc3Cl)c2c1	0.799
O=C(Nc1ccc(Cl)c(Cl)c1)Nc1ccc2c(c1)CCNCC2	0.532
O=C(Nc1ccc(-c2cccc(-c3nc4cc(C(F)(F)F)ccc4[nH]3)c2)cc1)c1ccoc1	0.829
CN(C)c1ccc(-c2csc(C(=O)NC3CCCCN(CCC(C)(C)C)C3)c2)cc1 (configuration not stated)	1.05
N#Cc1ccc(-c2ccc(C(=O)NC3CCN(CCN4CCc5c(cccc5C(F)(F)F)C4)CC3)cc2)cc1	0.703
O=C(C=Cc1ccccc1O)N1CCC(CN2CCC(c3c[nH]c4ccccc34)CC2)CC1	0.961
N#Cc1ccc(-c2ccc(C(=O)NCCCCN3CCC(c4cc(Br)c5c(c4O)CCCC5)CC3)cc2)cc1	0.154
Nc1nccc2ccc(-c3ccsc3)cc12	0.332
CCOc1ccc(-c2nc(NC(=O)COc3ccc(OC)cc3)sc2C)cc1	0.541
CCNc1cc(C(=O)NC(Cc2ccccc2)C(O)CNC2CCSCC2)cc(N2CCCC2=O)c1 (configuration not stated)	0.133
O=C(Nc1ccc(C(F)(F)F)cc1)c1ccc(S(=O)(=O)NC2CCN(Cc3ccccc3)C2)cc1 (configuration not stated)	0.618
CCN(CC)CCCNc1c2ccccc2nc2ccccc12	0.753
CC(C)c1ccc(NC(=O)c2ccc(C(=O)NC3CCN(CC4CCCCC4)C3)cc2)cc1 (configuration not stated)	0.792
COc1cc2ncnc(Nc3ccc(OCc4ccccc4)c(C(F)(F)F)c3)c2cc1OC	0.253
COc1ccc(CCNCCCCCCNCCc2ccc(OC)c(OC)c2Cl)c(Cl)c1OC	0.904
Cc1cc(C(=O)Nc2ccc(C)c(-c3nc(N(C(=O)c4ccc(F)c(C)c4)C4CCNCC4)nc4c3ccc(=O)n4-c3c(F)cccc3F)c2)ccc1F	0.319
CCCNCCc1ccc(NS(=O)(=O)c2cccc(-c3ccc(Cl)cc3)c2)cc1	0.975
O=C(CCc1cccnc1)Nc1ccc(-c2cccc(-c3nc4cc(F)ccc4[nH]3)c2)cc1	0.922
CCCOc1cccc(C(=O)N[C@@H](Cc2ccccc2)[C@H](O)CNCc2cccc(OC)c2)c1	0.741
CC(C)CC(NC(=O)c1cc2ccccc2s1)C(=O)N1CCCCCC1c1ccc(C(C)(C)C)cc1 (configuration not stated)	0.857
Cc1cc(N[C@@H](Cc2ccccc2)C(=O)NCc2cccc(F)c2)nc(NCCc2ccc(F)cc2)n1	0.649
Clc1nc(Cl)c2c(ccn2Cc2ccccc2)n1	0.787

SMILES	XC50 [µM]
CCCCCCCN(Cc1ccc(OC(C)(C)C(=O)OCC)cc1)C(=O)Nc1ccccc1OC(F)(F)F	0.966
CCN(CC)/C(=N\CCCCCC/N=C(\NC(=N)c1ccc(Cl)cc1)N(CC)CC)NC(=N)c1ccc(Cl)cc1	0.381
CC(C)C[C@H](NC(=O)c1ccc(F)cc1)C(=O)N[C@H](/C=N/NC(=O)c1ccccc1)CCc1ccccc1	0.812
CN1CCN(c2cccc(NC(=O)c3ccc(-c4ccc(C#N)cc4)cc3)c2)CC1	1.26
Cc1ccoc1C(=O)Nc1cccc(-c2cccc(-c3nc4cc(C(F)(F)F)ccc4[nH]3)c2)c1	0.613
CC[C@H](C)CNC(=O)c1ccnc(-c2cccc(CN3CCC(N4CCCC4)CC3)c2)c1	0.851
Cc1ccc(-c2nc3ccccc3o2)cc1NCc1cc(Cc2ccccc2)ccc1O	1.03
CS(=O)(=O)CCNCc1nc(-c2ccc3c(Nc4ccc(Oc5ccccn5)cc4)ccnc3c2)cs1	0.675
FC(F)(F)c1ccc2[nH]c(-c3cccc(-c4ccc(CNCc5cnn(-c6ccccc6)n5)cc4)c3)nc2c1	1.33
Nc1nc(N)c2c3c(ccc2n1)NCCC3	0.734
Cc1cccc(Nc2nccc(NCC(O)c3ccc(C(F)(F)F)cc3)n2)c1 (configuration not stated)	0.555
Clc1ccc2c(NCCNc3ccnc4cc(Cl)ccc34)ccnc2c1	0.396
Cc1cc(N(C)C2CCN(C)C2)nc(Nc2ccccc2Cl)n1 (configuration not stated)	0.754
Nc1ncc(-c2ccc(Cl)c(Cl)c2)c(N)n1	0.727
CC1(C)CCCN(Cc2c(O)ccc3c(O)c(-c4nc5ccccc5s4)c(=N)oc23)C1	0.337
CN(C)C(=O)CC(=O)NCc1cccc(Cl)c1	0.711
O=C(Cc1c[nH]cn1)Nc1cccc(-c2ccc(-c3nc4cc(F)ccc4[nH]3)s2)c1	0.66
COc1ccc2nccc(N/N=C/c3ccccc3[N+](=O)[O-])c2c1	0.0659
NC(=O)c1ccc(NCC(=O)Nc2cccc(-c3cccc(-c4nc5cc(F)ccc5[nH]4)c3)c2)cc1	0.867
COc1ccccc1CNCC(O)c1cc(C(F)(F)F)ccc1C(F)(F)F (configuration not stated)	0.944
COc1ccc(-c2cnc3[nH]cc(-c4ccncc4)c3c2)cc1OC	0.126
CCN(CC)CC(O)Cc1c2ccc([N+](=O)[O-])cc2nc2cc(OC)c(OC)cc12 (configuration not stated)	0.739
Cn1cncc1C(=O)Nc1cccc(-c2ccc(-c3nc4cc(C(F)(F)F)ccc4[nH]3)cc2)c1	0.509
CCc1cn(CCc2ccccc2)c2ccc(C(=O)N[C@@H](Cc3ccccc3)[C@H](O)CNC(C)(C)CCCC(C)C)cc12	0.219
CN1CCCN(Cc2ccc(-c3ccc(NS(=O)(=O)c4cccc5cccnc45)cc3)cc2)CC1	0.694

SMILES	XC50 [µM]
CSc1ccc(CN2CCC(CNC(=O)c3cc(-c4ccccc4F)cs3)C2)cc1 (configuration not stated)	1.14
CCOc1cc(C(=O)N[C@@H](Cc2ccccc2)[C@H](O)CNCc2cccc(OC)c2)cc(N2CCCCS2(=O)=O)c1	0.721
Cc1cc(N[C@@H](CC(C)C)C(=O)NC2CCCC2)nc(NCc2ccccc2C)n1	1.34
Nc1nc(N)c2c(n1)CCc1cc(Br)ccc1-2	1.13
Cc1cc(NS(=O)(=O)c2cccc(C(C)N3CCC(N4CCCC4)CC3)c2)ccc1C(C)C (configuration not stated)	0.824
O=C(CSc1nc(-c2ccccc2Cl)ns1)Nc1cccc(Cl)c1	0.787
CCCCc1ccc(C(=O)Nc2ccc3nc(N4CCN(CC)CC4)cc(C)c3c2)cc1	0.905
O=C(NCCN1CCOCC1)c1ccc(-c2ccc(CNCCCc3ccccc3)cc2)nc1	0.782
O=C(Nc1ccc(CN2CCOCC2)cc1)c1ccc(-c2ccc(Br)cc2)o1	1.12
C=CC[C@@H](C(=O)OCC)[C@@H]1[C@@H](N(CC=C)C(=O)OC(C)(C)C)CCN1C(=O)OCc1ccccc1	0.964
COc1c(C2CCN(CCCCNC(=O)c3ccc(C)c(-c4ccc(C(F)(F)F)cc4)c3)CC2)ccc2c1CCCC2	0.883
CC[C@H](C)CNCc1ccc(OCc2cccc(COc3ccc(CNC[C@@H](C)CC)cc3I)c2)c(I)c1	0.396
CC(C)NCc1ccc(-c2ccc(CN3CCCC(c4ccccc4)C3)cc2)c(C(=O)NC2Cc3ccccc3C2)c1 (configuration not stated)	0.991
COc1ccc2nc3cc(Cl)ccc3c(NCCCCNc3c4ccc(Cl)cc4nc4ccc(OC)cc34)c2c1	0.16
Fc1ccc2[nH]c(-c3ccc(-c4cccc(CN5CCN(c6ccncc6)CC5)c4)cc3)nc2c1	0.0857
O=C(NCCCCN1CCN(c2cccc3ccccc23)CC1)c1ccc(NC(=O)c2ccc(Cl)cc2)cc1	0.358
COc1ccc(CNC2CCN(C)CC2)cc1-c1ccc(S(=O)(=O)NCc2ccccc2)cc1	0.604
Cc1cc(C(F)(F)F)cc(-n2ncc(-c3ccc(C(=O)NCc4ccccc4N)cc3)c2N)n1	0.453
O=[N+]([O-])c1ccc(/C=N/O)nc1	0.872
CCc1ccc(NC(=O)C=NNC(=N)N)cc1	0.902
CC(C)CCN1C(=O)C(NC(=O)Oc2ccccc2)C(=O)N(CC23CC4CC(CC(C4)C2)C3)c2ccccc21 (configuration not stated)	0.752
Cc1cccc2nc(-c3cccc(-c4cccc(CNCCc5cccn5C)c4)c3)[nH]c12	0.733
Cc1cc(NCc2ccccc2)nc2cc(O)ccc12	0.784
COc1cc2c(c(Cl)c1OC)CCN(C(=O)C(F)(F)F)CC2c1ccccc1 (configuration not stated)	0.441
O=c1cc(NCCCCNCc2cccc(Cl)c2)[nH]c2ccccc12	0.743

SMILES	XC50 [µM]
Cc1ccc(-n2ncc(C(=O)Nc3cc(Cl)cc(Cl)c3)c2C2CCNCC2)cc1C	0.551
O=C(Nc1cc(Cl)cc(Cl)c1)Nc1ccccc1C(=O)NC1CCCCC1	0.749
COc1ccccc1-c1csc(C(=O)NC2CCCCN(Cc3ccc(C(C)(C)C)cc3)C2)c1 (configuration not stated)	1.53
CC1(C)Cc2c(oc3ncn(CCn4cnc5oc6c(c5c4=N)CC(C)(C)SC6)c(=N)c23)CS1	0.719
Cn1cnc(CCNC(=O)c2cccc(-c3cccc(-c4nc5cc(C(F)(F)F)ccc5[nH]4)c3)c2)c1	0.7
CCn1ncc(Cl)c1CN(C)S(=O)(=O)c1ccc(Br)cc1	1.02
COC(=O)c1ccc2nc(-c3cc(OC)c(O)c(C(=O)NC4CCN(Cc5ccccc5)CC4)c3)[nH]c2c1	1.18
CCCNCc1ccc(-c2ccc(CN(Cc3cnc(C)cn3)C(=O)/C=C/c3ccccc3C)cc2)nc1	0.919
Cc1cc2nc(-c3ccc(/C=C/C(=O)NC4CCCCC4)cc3)[nH]c2cc1C	1.01
CC(C)(CNC(=O)/C=C/c1ccc(C(F)(F)F)cc1)CNc1cc(=O)c2ccccc2[nH]1	0.912
Cc1cc(C(F)(F)F)n2nc(C3CCN(Cc4cc(C)c(O)c(C)c4)C3)cc2n1 (configuration not stated)	0.758
CS(=O)(=O)c1ccc(CCNCc2ccc(-c3ccc(CNC4CCN(Cc5ccccc5)CC4)cc3)nc2)cc1	0.249
COc1ccc(NC(=O)N2CCc3ccc(OCCN(C(C)C)C(C)C)cc32)cc1C(F)(F)F	0.969
O=C(Nc1ccc(S(=O)(=O)N2CCOCC2)cc1)c1cc(-c2cc(Cl)ccc2O)n[nH]1	0.77
CCCN(Cc1nnc(-c2cccs2)o1)C(=O)CSc1nnnn1-c1ccc(C)c(C)c1	0.582
O=C(NCC1CCN(CC2CCCCC2)C1)c1cc(-c2cccc(C(F)(F)F)c2)cs1 (configuration not stated)	0.738
CN(C)Cc1cccc2nc(-c3csc(Cc4cc(Cl)ccc4OCc4ccccc4)n3)[nH]c12	1.12
CC(=O)Nc1ncc(C(=O)Nc2cccc(-c3ccc(-c4nc5cc(C(F)(F)F)ccc5[nH]4)cc3)c2)s1	0.59
CCn1c(-c2nonc2N)nc2cnc(Oc3cccc(NC(=O)c4ccc(OCCN5CCCCC5)cc4)c3)cc21	1.06
Cc1cccc2nc(-c3ccc(-c4ccc(NC(=O)Nc5ccc(Cl)cc5)cc4)cc3)[nH]c12	0.1
Cc1cc2c(cc1C(F)(F)F)N(C(=O)Nc1cc(OCCN(C)C)cc(C(F)(F)F)c1)CC2	0.708
COc1cc(C=CC(=O)N2CCC(CN3CCC(c4c[nH]c5ccccc45)CC3)CC2)cc(OC)c1	0.803

Source: ChEMBL document CHEMBL1157539, “Thousands of chemical starting points for antimalarial lead identification” (Nature, 2010)
